Common to all, as to assay: biochemical
Common to all, as to type: biochemical

The target of assay [1] is 363 human kinases (including Aurora A/B/C) (Homo sapiens, UniProt Q96SB4). The conditions noted are these: SRPK1; for remaining activity at 0.5 µM / remaining activity at 0.1 µM: read-out: % Enzyme Activity (relative to DMSO controls); for remaining activity at 0.1 µM: 100 nM.
From the text: (§1) However, the Aurora A/B selectivity ratios derived from our in vitro and in vivo data can be compared to prioritize inhibitors.
Assay [2] deals with T1, 363 human kinases (including Aurora A/B/C) (Homo sapiens, UniProt O14920).
T1 sequence (O14920 1-756): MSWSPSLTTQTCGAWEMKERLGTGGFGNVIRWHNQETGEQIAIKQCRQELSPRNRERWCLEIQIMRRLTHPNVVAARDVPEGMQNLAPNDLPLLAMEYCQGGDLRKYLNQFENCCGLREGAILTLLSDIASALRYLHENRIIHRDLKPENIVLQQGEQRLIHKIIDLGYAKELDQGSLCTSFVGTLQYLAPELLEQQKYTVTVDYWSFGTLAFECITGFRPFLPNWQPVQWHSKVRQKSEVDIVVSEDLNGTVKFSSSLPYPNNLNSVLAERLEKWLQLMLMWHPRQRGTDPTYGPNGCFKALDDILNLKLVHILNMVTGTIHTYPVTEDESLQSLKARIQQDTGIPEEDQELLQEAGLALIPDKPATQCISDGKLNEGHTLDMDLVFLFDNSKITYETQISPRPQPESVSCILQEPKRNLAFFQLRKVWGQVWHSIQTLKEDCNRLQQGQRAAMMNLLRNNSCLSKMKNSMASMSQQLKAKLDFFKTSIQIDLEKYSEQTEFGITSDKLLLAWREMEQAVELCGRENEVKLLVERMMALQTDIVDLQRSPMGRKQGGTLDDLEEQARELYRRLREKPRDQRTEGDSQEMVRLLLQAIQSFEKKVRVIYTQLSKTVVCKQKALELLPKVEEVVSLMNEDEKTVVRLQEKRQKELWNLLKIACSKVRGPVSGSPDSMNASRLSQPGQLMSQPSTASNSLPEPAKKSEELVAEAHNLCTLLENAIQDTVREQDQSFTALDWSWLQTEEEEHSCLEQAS
The following applies: IKKb/IKBKB; for remaining activity at 0.5 µM / remaining activity at 0.1 µM: read-out: % Enzyme Activity (relative to DMSO controls); for remaining activity at 0.1 µM: 100 nM.
From the text: as §1

Assay [3] addresses 363 human kinases (including Aurora A/B/C) (Homo sapiens, UniProt O43353). The following applies: RIPK2; for remaining activity at 0.5 µM / remaining activity at 0.1 µM: read-out: % Enzyme Activity (relative to DMSO controls); for remaining activity at 0.1 µM: 100 nM.
From the text: as §1
For assay [4], the target named is T2, 363 human kinases (including Aurora A/B/C) (Homo sapiens, UniProt Q9Y2U5).
T2 sequence (Q9Y2U5 1-619): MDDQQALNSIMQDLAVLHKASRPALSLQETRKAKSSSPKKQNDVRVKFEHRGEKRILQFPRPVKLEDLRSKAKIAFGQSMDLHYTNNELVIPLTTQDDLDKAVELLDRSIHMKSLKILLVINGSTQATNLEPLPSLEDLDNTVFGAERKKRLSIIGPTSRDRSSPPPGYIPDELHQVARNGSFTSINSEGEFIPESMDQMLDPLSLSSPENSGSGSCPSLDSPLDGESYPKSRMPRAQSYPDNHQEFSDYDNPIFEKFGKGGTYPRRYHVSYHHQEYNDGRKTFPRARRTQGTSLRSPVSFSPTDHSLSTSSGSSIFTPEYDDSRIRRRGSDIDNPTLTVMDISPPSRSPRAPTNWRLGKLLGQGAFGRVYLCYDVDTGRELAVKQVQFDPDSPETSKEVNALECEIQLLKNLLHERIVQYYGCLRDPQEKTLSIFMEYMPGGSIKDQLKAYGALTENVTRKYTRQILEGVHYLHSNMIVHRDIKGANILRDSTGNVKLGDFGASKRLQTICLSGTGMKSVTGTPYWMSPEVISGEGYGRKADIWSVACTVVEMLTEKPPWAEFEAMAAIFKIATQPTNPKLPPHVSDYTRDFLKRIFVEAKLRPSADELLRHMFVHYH
The following applies: MEKK2; for remaining activity at 0.5 µM / remaining activity at 0.1 µM: read-out: % Enzyme Activity (relative to DMSO controls); for remaining activity at 0.1 µM: 100 nM.
From the text: as §1

The target of assay [5] is T3, 363 human kinases (including Aurora A/B/C) (Homo sapiens, UniProt Q6XUX3).
T3 sequence (Q6XUX3 1-929): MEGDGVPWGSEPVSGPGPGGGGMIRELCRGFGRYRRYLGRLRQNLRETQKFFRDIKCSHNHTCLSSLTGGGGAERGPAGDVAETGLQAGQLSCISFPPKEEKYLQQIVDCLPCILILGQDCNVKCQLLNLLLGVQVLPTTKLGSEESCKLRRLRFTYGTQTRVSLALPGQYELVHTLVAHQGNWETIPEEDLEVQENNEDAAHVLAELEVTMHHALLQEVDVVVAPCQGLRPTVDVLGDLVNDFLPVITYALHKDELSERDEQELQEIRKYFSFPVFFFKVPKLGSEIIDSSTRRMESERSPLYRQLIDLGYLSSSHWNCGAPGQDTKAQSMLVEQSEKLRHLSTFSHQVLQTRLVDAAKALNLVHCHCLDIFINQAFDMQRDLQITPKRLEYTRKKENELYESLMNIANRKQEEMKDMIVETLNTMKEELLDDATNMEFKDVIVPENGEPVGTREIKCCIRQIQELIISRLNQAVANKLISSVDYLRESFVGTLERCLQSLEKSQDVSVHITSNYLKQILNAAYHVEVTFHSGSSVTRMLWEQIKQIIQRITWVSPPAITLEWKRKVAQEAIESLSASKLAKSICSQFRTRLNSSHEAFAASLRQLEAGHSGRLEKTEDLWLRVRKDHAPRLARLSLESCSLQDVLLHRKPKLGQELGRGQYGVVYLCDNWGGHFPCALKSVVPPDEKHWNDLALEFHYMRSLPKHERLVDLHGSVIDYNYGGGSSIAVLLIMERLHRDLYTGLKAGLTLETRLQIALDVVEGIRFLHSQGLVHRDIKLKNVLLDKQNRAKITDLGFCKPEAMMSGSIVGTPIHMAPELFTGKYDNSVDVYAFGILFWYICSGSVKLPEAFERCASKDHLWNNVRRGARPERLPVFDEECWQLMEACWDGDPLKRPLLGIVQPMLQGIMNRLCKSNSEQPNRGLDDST
The following applies: RIPK5; for remaining activity at 0.5 µM / remaining activity at 0.1 µM: read-out: % Enzyme Activity (relative to DMSO controls); for remaining activity at 0.1 µM: 100 nM.
From the text: as §1

Assay [6] addresses 363 human kinases (including Aurora A/B/C) (Homo sapiens, UniProt Q14680). The following applies: MELK; for remaining activity at 0.5 µM / remaining activity at 0.1 µM: read-out: % Enzyme Activity (relative to DMSO controls); for remaining activity at 0.1 µM: 100 nM.
From the text: as §1
The target in assay [7] is 363 human kinases (including Aurora A/B/C) (Homo sapiens, UniProt Q13233). The conditions noted are these: MEKK1; for remaining activity at 0.5 µM / remaining activity at 0.1 µM: read-out: % Enzyme Activity (relative to DMSO controls); for remaining activity at 0.1 µM: 100 nM.
From the text: as §1
The target of assay [8] is 363 human kinases (including Aurora A/B/C) (Homo sapiens, UniProt Q16513). The following applies: PKN2/PRK2; for remaining activity at 0.5 µM / remaining activity at 0.1 µM: read-out: % Enzyme Activity (relative to DMSO controls); for remaining activity at 0.1 µM: 100 nM.
From the text: as §1
The target of assay [9] is 363 human kinases (including Aurora A/B/C) (Homo sapiens, UniProt O96017). The following applies: CHK2, [ATP] 20 µM.
From the text: as §1
Where [10] appears, read: 500 nM, read-out: % Enzyme Activity (relative to DMSO controls).

Sequence of 363 human kinases (including Aurora A/B/C) (Homo sapiens, UniProt O43353) (O43353 whole entry): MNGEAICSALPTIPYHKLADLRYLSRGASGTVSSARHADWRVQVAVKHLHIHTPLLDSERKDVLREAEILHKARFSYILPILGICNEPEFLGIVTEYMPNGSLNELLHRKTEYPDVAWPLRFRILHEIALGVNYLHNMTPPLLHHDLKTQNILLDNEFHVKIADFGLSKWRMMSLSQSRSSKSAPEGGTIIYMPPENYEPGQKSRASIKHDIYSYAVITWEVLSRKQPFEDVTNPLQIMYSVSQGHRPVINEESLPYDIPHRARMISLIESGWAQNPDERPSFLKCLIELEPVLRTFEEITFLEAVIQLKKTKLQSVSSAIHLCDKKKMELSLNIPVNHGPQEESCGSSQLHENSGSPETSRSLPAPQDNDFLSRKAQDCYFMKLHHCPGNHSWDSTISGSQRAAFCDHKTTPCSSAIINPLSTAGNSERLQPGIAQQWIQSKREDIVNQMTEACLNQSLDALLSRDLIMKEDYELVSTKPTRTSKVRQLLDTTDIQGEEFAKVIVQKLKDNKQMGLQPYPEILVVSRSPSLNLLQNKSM
Sequence of 363 human kinases (including Aurora A/B/C) (Homo sapiens, UniProt O96017) (O96017 whole entry): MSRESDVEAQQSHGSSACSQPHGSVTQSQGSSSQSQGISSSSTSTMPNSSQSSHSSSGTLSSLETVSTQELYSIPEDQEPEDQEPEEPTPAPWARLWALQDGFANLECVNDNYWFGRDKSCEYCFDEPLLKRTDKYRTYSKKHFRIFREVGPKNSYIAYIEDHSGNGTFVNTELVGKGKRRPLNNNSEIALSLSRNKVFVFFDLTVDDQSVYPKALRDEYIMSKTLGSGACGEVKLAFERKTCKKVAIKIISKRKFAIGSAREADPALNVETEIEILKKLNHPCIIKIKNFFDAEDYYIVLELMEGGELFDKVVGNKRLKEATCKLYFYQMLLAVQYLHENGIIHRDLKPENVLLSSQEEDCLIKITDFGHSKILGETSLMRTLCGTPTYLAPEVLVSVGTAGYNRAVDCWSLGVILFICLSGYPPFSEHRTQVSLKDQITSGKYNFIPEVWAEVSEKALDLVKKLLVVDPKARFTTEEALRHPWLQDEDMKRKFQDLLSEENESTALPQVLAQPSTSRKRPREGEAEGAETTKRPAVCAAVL
Sequence of 363 human kinases (including Aurora A/B/C) (Homo sapiens, UniProt Q16513) (Q16513 whole entry): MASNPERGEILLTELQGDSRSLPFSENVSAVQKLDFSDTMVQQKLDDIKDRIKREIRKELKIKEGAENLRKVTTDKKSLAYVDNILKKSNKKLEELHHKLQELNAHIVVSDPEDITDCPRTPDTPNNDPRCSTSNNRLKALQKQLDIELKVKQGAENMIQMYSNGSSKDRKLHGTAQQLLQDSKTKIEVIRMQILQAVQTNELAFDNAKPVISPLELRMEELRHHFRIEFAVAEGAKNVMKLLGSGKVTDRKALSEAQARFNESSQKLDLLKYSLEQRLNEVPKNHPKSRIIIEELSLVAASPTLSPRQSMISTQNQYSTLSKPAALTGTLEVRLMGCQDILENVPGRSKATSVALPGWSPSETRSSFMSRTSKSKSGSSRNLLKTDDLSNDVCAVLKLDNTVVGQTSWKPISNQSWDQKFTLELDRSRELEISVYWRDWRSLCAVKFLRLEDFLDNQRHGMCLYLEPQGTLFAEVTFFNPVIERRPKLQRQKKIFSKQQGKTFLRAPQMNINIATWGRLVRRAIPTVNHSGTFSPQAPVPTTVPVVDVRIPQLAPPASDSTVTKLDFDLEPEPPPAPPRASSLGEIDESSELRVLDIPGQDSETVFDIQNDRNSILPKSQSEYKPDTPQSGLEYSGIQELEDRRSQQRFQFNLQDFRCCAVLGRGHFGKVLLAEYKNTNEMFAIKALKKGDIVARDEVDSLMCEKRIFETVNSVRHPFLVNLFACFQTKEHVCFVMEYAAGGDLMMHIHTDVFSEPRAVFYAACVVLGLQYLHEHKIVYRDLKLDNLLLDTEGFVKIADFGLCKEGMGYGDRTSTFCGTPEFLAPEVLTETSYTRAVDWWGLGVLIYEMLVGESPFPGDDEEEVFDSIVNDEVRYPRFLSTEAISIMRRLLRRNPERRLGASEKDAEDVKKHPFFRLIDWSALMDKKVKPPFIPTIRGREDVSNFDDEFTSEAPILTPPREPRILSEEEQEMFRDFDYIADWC
Sequence of 363 human kinases (including Aurora A/B/C) (Homo sapiens, UniProt Q96SB4) (Q96SB4 whole entry): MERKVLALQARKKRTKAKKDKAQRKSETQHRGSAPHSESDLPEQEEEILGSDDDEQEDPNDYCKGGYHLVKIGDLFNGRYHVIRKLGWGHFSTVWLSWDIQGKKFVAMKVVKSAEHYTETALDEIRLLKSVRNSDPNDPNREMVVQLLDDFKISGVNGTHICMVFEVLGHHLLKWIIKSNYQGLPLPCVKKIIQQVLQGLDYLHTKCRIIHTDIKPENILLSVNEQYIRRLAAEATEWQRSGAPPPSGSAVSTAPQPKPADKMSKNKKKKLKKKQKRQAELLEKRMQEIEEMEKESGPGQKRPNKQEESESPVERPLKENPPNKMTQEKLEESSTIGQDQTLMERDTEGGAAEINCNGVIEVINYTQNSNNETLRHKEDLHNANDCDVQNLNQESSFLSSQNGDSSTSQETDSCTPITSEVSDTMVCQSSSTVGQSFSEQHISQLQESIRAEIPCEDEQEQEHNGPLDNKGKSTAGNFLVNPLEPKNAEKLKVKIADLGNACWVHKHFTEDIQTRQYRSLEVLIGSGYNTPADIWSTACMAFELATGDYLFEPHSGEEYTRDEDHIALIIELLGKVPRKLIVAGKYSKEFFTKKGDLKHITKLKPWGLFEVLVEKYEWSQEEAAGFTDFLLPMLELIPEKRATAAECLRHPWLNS
Sequence of 363 human kinases (including Aurora A/B/C) (Homo sapiens, UniProt Q14680) (Q14680 whole entry): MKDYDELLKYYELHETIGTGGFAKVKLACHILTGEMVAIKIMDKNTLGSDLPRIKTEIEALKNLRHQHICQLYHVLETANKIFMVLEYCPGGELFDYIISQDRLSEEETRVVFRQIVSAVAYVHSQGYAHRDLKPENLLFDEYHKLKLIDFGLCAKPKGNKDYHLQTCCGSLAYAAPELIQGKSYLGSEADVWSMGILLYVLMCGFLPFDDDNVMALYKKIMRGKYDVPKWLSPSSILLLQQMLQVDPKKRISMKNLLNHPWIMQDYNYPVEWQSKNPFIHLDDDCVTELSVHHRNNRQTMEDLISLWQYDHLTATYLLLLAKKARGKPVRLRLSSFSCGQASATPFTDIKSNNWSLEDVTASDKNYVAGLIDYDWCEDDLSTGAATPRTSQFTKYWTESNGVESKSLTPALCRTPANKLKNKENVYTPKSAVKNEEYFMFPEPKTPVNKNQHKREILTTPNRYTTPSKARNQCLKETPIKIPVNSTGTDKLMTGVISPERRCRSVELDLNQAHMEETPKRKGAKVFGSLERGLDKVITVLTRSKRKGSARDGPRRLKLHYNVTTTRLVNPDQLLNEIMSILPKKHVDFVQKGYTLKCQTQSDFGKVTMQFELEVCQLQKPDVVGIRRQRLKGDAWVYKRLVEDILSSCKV
Sequence of 363 human kinases (including Aurora A/B/C) (Homo sapiens, UniProt Q13233) (Q13233 whole entry): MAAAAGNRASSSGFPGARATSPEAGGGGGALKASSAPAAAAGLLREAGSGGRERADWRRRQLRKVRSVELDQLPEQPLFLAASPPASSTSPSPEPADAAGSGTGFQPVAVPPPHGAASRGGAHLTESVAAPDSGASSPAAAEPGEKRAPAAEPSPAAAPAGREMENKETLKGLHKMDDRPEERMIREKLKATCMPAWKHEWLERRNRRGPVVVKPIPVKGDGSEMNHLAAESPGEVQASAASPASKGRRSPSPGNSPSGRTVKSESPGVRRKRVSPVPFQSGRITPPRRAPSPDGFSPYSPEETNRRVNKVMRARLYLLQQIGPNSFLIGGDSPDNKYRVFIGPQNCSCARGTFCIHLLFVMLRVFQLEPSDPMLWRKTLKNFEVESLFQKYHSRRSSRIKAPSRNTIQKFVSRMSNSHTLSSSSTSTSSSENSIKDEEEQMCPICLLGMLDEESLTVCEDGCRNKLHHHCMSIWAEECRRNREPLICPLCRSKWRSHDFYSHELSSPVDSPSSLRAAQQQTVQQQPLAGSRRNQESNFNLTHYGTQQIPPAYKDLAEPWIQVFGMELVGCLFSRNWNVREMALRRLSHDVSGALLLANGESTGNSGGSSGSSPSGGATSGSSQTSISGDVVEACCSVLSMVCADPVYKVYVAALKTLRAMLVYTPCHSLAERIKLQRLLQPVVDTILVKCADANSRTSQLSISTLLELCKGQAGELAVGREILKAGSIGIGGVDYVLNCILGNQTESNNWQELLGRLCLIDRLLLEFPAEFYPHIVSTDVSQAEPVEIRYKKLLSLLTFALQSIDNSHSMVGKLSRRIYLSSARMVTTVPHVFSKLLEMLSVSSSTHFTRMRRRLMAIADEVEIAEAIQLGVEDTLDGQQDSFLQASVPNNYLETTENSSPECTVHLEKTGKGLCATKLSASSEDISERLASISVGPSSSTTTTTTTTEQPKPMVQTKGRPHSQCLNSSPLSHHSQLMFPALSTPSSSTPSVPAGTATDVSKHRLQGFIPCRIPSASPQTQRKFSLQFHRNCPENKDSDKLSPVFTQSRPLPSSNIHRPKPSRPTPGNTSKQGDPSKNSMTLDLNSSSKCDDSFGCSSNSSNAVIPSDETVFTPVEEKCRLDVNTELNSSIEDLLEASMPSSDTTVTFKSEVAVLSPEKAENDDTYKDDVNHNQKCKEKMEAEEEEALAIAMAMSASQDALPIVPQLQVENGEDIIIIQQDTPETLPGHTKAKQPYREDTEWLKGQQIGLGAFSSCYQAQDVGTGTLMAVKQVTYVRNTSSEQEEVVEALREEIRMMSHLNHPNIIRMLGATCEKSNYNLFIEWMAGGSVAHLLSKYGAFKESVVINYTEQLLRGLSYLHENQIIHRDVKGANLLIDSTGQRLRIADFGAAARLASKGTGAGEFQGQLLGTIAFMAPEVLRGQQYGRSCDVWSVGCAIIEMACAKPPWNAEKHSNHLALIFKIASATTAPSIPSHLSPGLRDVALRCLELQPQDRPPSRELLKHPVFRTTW

Turning to `O=C(c1cccc(Cl)c1F)N1CCN(Cc2cccc(Nc3nccs3)n2)CC1` [MK-8745], the “% Enzyme Activity (relative to DMSO controls)” value in assay [1] (500 nM) was determined as 99.92%; in assay [2] (500 nM), 112.10%; in assay [3] (500 nM), 82.53%; in assay [4] (500 nM) it was 96.27%; in [5] (500 nM), 103.95%; in [6] (500 nM), 93.77%. Moreover, the “% Enzyme Activity (relative to DMSO controls)” value in assay [7] (500 nM) is listed as 100.17%; in assay [8] (500 nM), 103.16%; in [9] (500 nM), 91.78%. The remaining activity at 0.5 µM stood at 101% in assay [1] (500 nM); 119% in assay [2] (500 nM); 89.3% in assay [3] (500 nM); 97.5% in assay [4] (500 nM); 105% in assay [5] (500 nM); 95.9% in assay [6] (500 nM). Further, the remaining activity at 0.5 µM in assay [7] (500 nM) is 101%; in assay [8] (500 nM) it was 104%; in assay [9] (setting [10]) it was 93.2%.
Consider `CCn1cc(-c2ccnc3[nH]c(-c4cccc(CN(C)C)c4)cc23)c(-c2ccc(NC(=O)N(C)C)cc2)n1` [GSK1070916], for which the remaining activity at 0.1 µM in [1] stood at 103%; in assay [2], 126%; in assay [3] it was 116%; in assay [4], 81.7%; in assay [5], 114%; in assay [6], 95.7%. The remaining activity at 0.1 µM in [7] came out at 91.8%; in [8], 115%; in [9] (100 nM, read-out: % Enzyme Activity (relative to DMSO controls)), 99.2%.
Regarding `O=C(O)[C@]1(Cc2cccc(Nc3nccs3)n2)CC[C@@H](Oc2cccc(Cl)c2F)CC1` [MK-5108], the remaining activity at 0.1 µM in assay [1] is 101%; in [2] it was 103%; in [3] it was 89.1%; in assay [4], 102%; in assay [5], 96.6%; in assay [6], 109%. Moreover, the remaining activity at 0.1 µM in assay [7] turned out to be 104%; in assay [8], 108%. Moreover, the remaining activity at 0.5 µM was 95.5% in [1] (500 nM); 128% in assay [2] (500 nM); 60% in assay [3] (500 nM); 83.9% in assay [4] (500 nM); 123% in assay [5] (500 nM); 112% in [6] (500 nM). Further, the remaining activity at 0.5 µM in assay [7] (500 nM) amounted to 87%; in [8] (500 nM), 108%; in assay [9] (setting [10]) it was 56.2%.

The values are drawn from article PMC4685510, “A Cell Biologist’s Field Guide to Aurora Kinase Inhibitors” (Frontiers in Oncology, 2015).
